Test results published in PMC3433420 (PLoS ONE, 2012).
Residues, ends and D or L forms follow the SMILES beside them.

Legend:
Settings in all cases: high-confidence ErbB interactions
[1] = molecular target: T1, PIK3R3-N SH2 domain (Homo sapiens, UniProt Q92569); test: FP saturation binding assay
T1 construct: 6X His; thioredoxin; made in house; host or cells: E. coli BL21(DE3)pLysS
Procedure, shortened: (§1)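 Rhodamine-labeled peptides (10 nM final) were titrated with 12 SH2 domain concentrations (0.002–10 µM) in 20 mM HEPES, 100 mM KCl, 0.1% Tween-20, 5 mM DTT, pH 7.8. After 20 min at room temperature in the dark, FP (ex 530/em 555 nm) was read. KDs came from nonlinear least-squares fits.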

[2] = molecular target: T2, PIK3R3-NC tandem SH2 domains (Homo sapiens, UniProt Q92569); test: FP saturation binding assay
T2 construct: the tandem protein was included in our analysis with all internal amino acids linking the domains; 6X His; thioredoxin; made in house; host or cells: E. coli BL21(DE3)pLysS
Procedure, shortened: as §1

[3] = molecular target: T3, PTK6 SH2 domain (Homo sapiens, UniProt Q13882); test: FP saturation binding assay
T3 construct: from the PTK6 SH2 domain; 6X His; thioredoxin; made in house; host or cells: E. coli BL21(DE3)pLysS
T3 sequence (Q13882 78-170 limits assumed): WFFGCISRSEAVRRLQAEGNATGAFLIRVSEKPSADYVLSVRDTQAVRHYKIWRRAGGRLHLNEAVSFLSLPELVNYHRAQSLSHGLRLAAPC
Procedure, shortened: as §1

[4] = molecular target: T4, RASA1-NC tandem SH2 domains (Homo sapiens, UniProt P20936); test: FP saturation binding assay
T4 construct: the tandem protein was included in our analysis with all internal amino acids linking the domains; 6X His; thioredoxin; made in house; host or cells: E. coli BL21(DE3)pLysS
T4 sequence (P20936 181-441 limits assumed): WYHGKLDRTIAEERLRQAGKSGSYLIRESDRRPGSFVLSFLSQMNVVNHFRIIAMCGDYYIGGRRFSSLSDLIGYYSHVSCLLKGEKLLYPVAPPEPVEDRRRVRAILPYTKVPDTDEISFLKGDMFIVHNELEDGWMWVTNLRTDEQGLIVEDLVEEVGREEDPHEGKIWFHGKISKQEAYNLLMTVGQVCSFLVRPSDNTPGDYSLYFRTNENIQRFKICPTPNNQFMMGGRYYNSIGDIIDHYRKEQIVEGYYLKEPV
Procedure, shortened: as §1

[5] = molecular target: T5, YES1 SH2 domain (Homo sapiens, UniProt P07947); test: FP saturation binding assay
T5 construct: 6X His; thioredoxin; made in house; host or cells: BL21(DE3)pLysS E. coli
T5 sequence (P07947 158-255 limits assumed): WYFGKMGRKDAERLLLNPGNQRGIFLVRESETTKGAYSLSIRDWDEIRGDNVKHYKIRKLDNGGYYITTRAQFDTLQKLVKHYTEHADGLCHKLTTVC
Procedure, shortened: as §1

[6] = molecular target: T6, LCK SH2 domain (Homo sapiens, UniProt P06239); test: FP saturation binding assay
T6 construct: 93 SH2 and 2 PTB domain-containing constructs; 6X His; thioredoxin; made in house; host or cells: E. coli BL21(DE3)pLysS
T6 sequence (P06239 127-224 limits assumed): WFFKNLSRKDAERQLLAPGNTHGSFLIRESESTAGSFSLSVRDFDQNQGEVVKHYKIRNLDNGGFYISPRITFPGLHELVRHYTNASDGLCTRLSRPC
Procedure, shortened: as §1

[7] = molecular target: T7, LYN SH2 domain (Homo sapiens, UniProt P07948); test: FP saturation binding assay
T7 construct: 93 SH2 and 2 PTB domain-containing constructs; 6X His; thioredoxin; made in house; host or cells: E. coli BL21(DE3)pLysS
T7 sequence (P07948 129-226 limits assumed): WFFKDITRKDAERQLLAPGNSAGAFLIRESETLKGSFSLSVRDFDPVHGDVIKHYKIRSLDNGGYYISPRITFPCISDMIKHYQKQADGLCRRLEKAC
Procedure, shortened: as §1

[8] = molecular target: T8, PLCG1-C SH2 domain (Homo sapiens, UniProt P19174); test: biochemical; assay type: binding
T8 construct: The 6X His-tagged SH2 domain proteins used in the assay, PLCG1-C, SHC4, VAV2; thioredoxin; made in house; host or cells: E. coli BL21(DE3)pLysS
T8 sequence (P19174 668-756 limits assumed): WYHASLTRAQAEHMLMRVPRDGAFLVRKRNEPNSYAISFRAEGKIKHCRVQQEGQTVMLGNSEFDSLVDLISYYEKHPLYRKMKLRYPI

[9] = Protein PIK3R3-N, FP saturation binding, mean over replicate hits
[10] = Protein PIK3R3-NC, FP saturation binding, mean over replicate hits
[11] = Protein YES1, FP saturation binding, mean over replicate hits
[12] = protein LCK, FP, mean of replicate hits
[13] = protein YES1, FP, mean of replicate hits

Compound `CC(C)C[C@H](NC(=O)[C@H](Cc1ccc(OP(=O)(O)O)cc1)NC(=O)[C@H](CCC(=O)O)NC(=O)[C@H](CCC(=O)O)NC(=O)[C@H](C)NC(=O)[C@@H](N)CC(=O)O)C(=O)N[C@H](C(=O)N1CCC[C@H]1C(=O)N[C@@H](CCC(N)=O)C(=O)N[C@@H](CCC(N)=O)C(=O)NCC(=O)N[C@@H](Cc1ccccc1)C(=O)N[C@@H](CC(=O)O)C(=O)O)C(C)C` [ErbB2 1023 13-mer] (HELM PEPTIDE1{D.A.E.E.[O=C([C@H](Cc1ccc(OP(=O)(O)O)cc1)N[*:1])[*:2]].L.V.P.Q.Q.G.F.D}$$$$V2.0) has a Kd [1, 9] of 5.27 µM, a Kd [2, 10] of 10.7 µM and a Kd ([3]; Protein PTK6, FP saturation binding, mean over replicate hits) of 3.76 µM. The Kd ([4]; Protein RASA1-NC, FP saturation binding, mean over replicate hits) was 6.65 µM.
`CC(C)[C@H](NC(=O)[C@H](CC(=O)O)NC(=O)[C@@H]1CCCN1C(=O)[C@H](CCC(N)=O)NC(=O)[C@H](CC(N)=O)NC(=O)[C@@H](NC(=O)[C@H](Cc1ccc(OP(=O)(O)O)cc1)NC(=O)[C@H](CCC(=O)O)NC(=O)[C@@H]1CCCN1C(=O)[C@H](CCC(N)=O)NC(=O)[C@@H]1CCCN1)C(C)C)C(=O)N[C@@H](CCCNC(=N)N)C(=O)N[C@@H](CC(=O)O)C(=O)O` [ErbB2 1139 13-mer] (HELM PEPTIDE1{P.Q.P.E.[O=C([C@H](Cc1ccc(OP(=O)(O)O)cc1)N[*:1])[*:2]].V.N.Q.P.D.V.R.D}$$$$V2.0) was tested, and the Kd [1, 9] was 9.05 µM, the Kd [2, 10] was 5.18 µM and the Kd [5, 11] was 13.4 µM.
With `CC(C)C[C@H](NC(=O)[C@H](CC(N)=O)NC(=O)[C@@H](N)CC(=O)O)C(=O)N[C@@H](Cc1ccc(O)cc1)C(=O)N[C@@H](Cc1ccc(OP(=O)(O)O)cc1)C(=O)N[C@@H](Cc1c[nH]c2ccccc12)C(=O)N[C@@H](CC(=O)O)C(=O)N[C@@H](CCC(N)=O)C(=O)N[C@@H](CC(=O)O)C(=O)N1CCC[C@H]1C(=O)N1CCC[C@H]1C(=O)N[C@@H](CCC(=O)O)C(=O)N[C@@H](CC(=O)O)C(=O)O` [ErbB2 1222 13-mer] (HELM PEPTIDE1{D.N.L.Y.[O=C([C@H](Cc1ccc(OP(=O)(O)O)cc1)N[*:1])[*:2]].W.D.Q.D.P.P.E.D}$$$$V2.0) the Kd ([6]; Protein LCK, FP saturation binding, mean over replicate hits) was 7.7 µM, the Kd ([7]; Protein LYN, FP saturation binding, mean over replicate hits) was 4.18 µM and the Kd [1, 9] was 9.63 µM. The Kd [2, 10] was 10.3 µM, the Kd [5, 11] was 1.52 µM and the Kd ([8]; Protein PLCG1-C, FP saturation binding, mean over replicate hits) was 0.78 µM.
Compound `CSCC[C@H](NC(=O)[C@H](Cc1ccc(OP(=O)(O)O)cc1)NC(=O)[C@H](CCC(=O)O)NC(=O)[C@H](Cc1ccc(O)cc1)NC(=O)CNC(=O)[C@@H](N)CC(C)C)C(=O)N[C@@H](CC(=O)O)C(=O)N[C@H](C(=O)NCC(=O)N[C@@H](CO)C(=O)N[C@@H](CC(=O)O)C(=O)N[C@@H](CC(C)C)C(=O)N[C@@H](CC(=O)O)C(=O)O)C(C)C` [ErbB3 1224 13-mer] (HELM PEPTIDE1{L.G.Y.E.[O=C([C@H](Cc1ccc(OP(=O)(O)O)cc1)N[*:1])[*:2]].M.D.V.G.S.D.L.D}$$$$V2.0) has a Kd [6, 12] of 3.02 µM, a Kd ([7]; protein LYN, FP, mean of replicate hits) of 6.86 µM and a Kd ([3]; protein PTK6, FP, mean of replicate hits) of 6.58 µM. It also gave a Kd [5, 13] of 2.52 µM.
Compound `CSCC[C@H](NC(=O)[C@H](CCC(=O)O)NC(=O)[C@H](CCC(=O)O)NC(=O)[C@H](Cc1ccc(OP(=O)(O)O)cc1)NC(=O)CNC(=O)[C@H](CCC(N)=O)NC(=O)[C@H](CCC(=O)O)NC(=O)[C@@H](N)CO)C(=O)N[C@@H](CCCNC(=N)N)C(=O)N[C@@H](C)C(=O)N[C@@H](Cc1ccccc1)C(=O)N[C@@H](CCC(N)=O)C(=O)N[C@@H](CC(=O)O)C(=O)O` [ErbB3 1289 13-mer] (HELM PEPTIDE1{S.E.Q.G.[O=C([C@H](Cc1ccc(OP(=O)(O)O)cc1)N[*:1])[*:2]].E.E.M.R.A.F.Q.D}$$$$V2.0) has a Kd [6, 12] of 2.23 µM, a Kd ([1]; protein PIK3R3-N, FP, mean of replicate hits) of 0.3 µM and a Kd [5, 13] of 5.91 µM.
`CSCC[C@H](NC(=O)[C@H](Cc1ccc(OP(=O)(O)O)cc1)NC(=O)CNC(=O)[C@H](CCC(=O)O)NC(=O)[C@H](CCC(=O)O)NC(=O)[C@H](CC(=O)O)NC(=O)[C@H](CC(C)C)NC(=O)[C@H](CCC(=O)O)NC(=O)CNC(=O)[C@H](CCCNC(=N)N)NC(=O)[C@@H]1CCCN1)C(=O)N[C@H](C(=O)N1CCC[C@H]1C(=O)N[C@@H](CCSC)C(=O)N[C@@H](CCCNC(=N)N)C(=O)N[C@@H](CC(=O)O)C(=O)N[C@@H](CCCCN)C(=O)N[C@@H](CC(=O)O)C(=O)O)[C@@H](C)O` [ErbB4 1150 18-mer] (HELM PEPTIDE1{P.R.G.E.L.D.E.E.G.[O=C([C@H](Cc1ccc(OP(=O)(O)O)cc1)N[*:1])[*:2]].M.T.P.M.R.D.K.D}$$$$V2.0) was tested, and the Kd ([2]; protein PIK3R3-NC, FP, mean of replicate hits) was 2.5 µM, the Kd ([4]; protein RASA1-NC, FP, mean of replicate hits) was 0.41 µM and the Kd ([8]; protein PLCG1-C, FP, mean of replicate hits) was 3.1 µM.
For `CC(C)C[C@H](NC(=O)[C@H](Cc1ccc(OP(=O)(O)O)cc1)NC(=O)[C@H](CC(C)C)NC(=O)[C@@H]1CCCN1C(=O)[C@H](CCC(=O)O)NC(=O)[C@H](CC(N)=O)NC(=O)[C@@H](NC(=O)[C@H](Cc1ccc(O)cc1)NC(=O)[C@H](CCC(=O)O)NC(=O)[C@H](CC(=O)O)NC(=O)[C@@H](N)CCC(=O)O)C(C)C)C(=O)N[C@@H](CC(N)=O)C(=O)N[C@H](C(=O)N[C@@H](Cc1ccccc1)C(=O)N[C@@H](C)C(=O)N[C@@H](CC(N)=O)C(=O)N[C@H](C(=O)N[C@@H](CC(=O)O)C(=O)O)[C@@H](C)O)[C@@H](C)O` [ErbB4 1208 18-mer] (HELM PEPTIDE1{E.D.E.Y.V.N.E.P.L.[O=C([C@H](Cc1ccc(OP(=O)(O)O)cc1)N[*:1])[*:2]].L.N.T.F.A.N.T.D}$$$$V2.0), the Kd ([7]; protein LYN, mean of replicate hits) was 5.15 µM, the Kd ([2]; protein PIK3R3-NC, mean of replicate hits) was 3.02 µM and the Kd ([3]; protein PTK6, mean of replicate hits) was 15.5 µM. The Kd ([4]; protein RASA1-NC, mean of replicate hits) was 6.39 µM and the Kd ([8]; protein PLCG1-C, mean of replicate hits) was 2.07 µM.
